Literature values in patent US20070149611A1, “CB-DELTA8-THC COMPOSITION” (priority 2003, published 2007).

How the values were obtained:
[1] = more effective than Δ^9-THC; Abrahamov et al, 1995
[2] = Δ^9-THC is easily oxidized to cannabinol
[3] = relative to Δ^9-THC
[4] = CBD alone

SMILES: CCCCCc1cc(O)c2c(c1)OC(C)(C)[C@@H]1CC=C(C)C[C@@H]21 [Δ^8-THC, Δ^8-tetrahydrocannabinol]
- anti-emetic effectiveness relative to Δ^9-THC [1]: 200%
- stability towards oxidation to cannabinol [2]: very stable
- psychometric potency, less potent than Δ^9-THC (generally considered) [3]: 50%
- psychometric potency, times less potent than Δ^9-THC (in some cases) [3]: 3-10 times

SMILES: C=C(C)[C@@H]1CCC(C)=C[C@H]1c1c(O)cc(CCCCC)cc1O [CBD, cannabidiol]
- effects when administered on its own [4]: no noticeable effects
